From patent US10173999B2, “Cyclic amine derivative and pharmaceutical use thereof” (Toray Industries, Inc., priority 2015, dated 2019) come the findings set out here.

Where a name gives a salt, the structure may show the parent alone.

Data set [1] can be described thus: Stability test in mouse liver microsomes. The data set is classed as in vitro ADME. The note with it: pH 7.4; mouse liver microsomes 0.5 mg/mL, test compound 2 μmol/L, 37° C., 0-30 min; read-out: Hepatic intrinsic clearance, Mouse. The procedure: Experiment was performed using the compound of Example 11, Comparative Example 1 or Comparative Example 6 as a test compound and human liver microsomes (from Xenotech), monkey liver microsomes (from Xenotech), dog liver microsomes (from Xenotech) or mouse liver microsomes (from Xenotech) as the liver microsomes.
The reagents to be used in the stability test in liver microsomes were prepared as follows. A D-glucose 6-phosphate disodium salt (hereinafter referred to as G6P) was dissolved with distilled water to prepare an aqueous solution of G6P (100 mmol/L). Glucose 6-phosphate dehydrogenase (1000 units) from Yeast (hereinafter referred to as G6PDH) was dissolved with distilled water (5 mL) to prepare an aqueous solution of G6PDH (200 units/mL). MgCl2 was dissolved with distilled water to prepare an aqueous solution of MgCl2 (100 mmol/L). […]
With respect to the chromatogram of each well obtained by LC/MS analysis or LC/MS/MS analysis, the test compound residual ratio (%) at each reaction time t (min) was calculated based on the peak area at the reaction time of 0 minute as 100%. […]

Data set [2] concerns Canine aortic smooth muscle cells. As to the kind of experiment: Inducibility of cytoplasmic vacuolation in canine aortic smooth muscle cells. It is filed as cell-based. Also on record: key: Present: The term “present” in the tables means that cytoplasmic vacuolation was observed; Absent: the term “absent” means that cytoplasmic vacuolation was not observed. Particulars: Concentration: 1.0 mmol/L, Treatment time: 24 hours. The procedure:
As a test compound, the compound of Example 3, 9, 11, 12 or compounds of Comparative Examples 2 to 6 were used. Canine aortic smooth muscle cells (Canine Aortic Smooth Muscle Cells, supply source: Toyobo Co., Ltd.) or human aortic smooth muscle cells of (T/G HA-VSMG, supply source: ATCC) were treated with a test compound (1.0 or 1.2 mmol/L in concentration) for 24 hours or 2 weeks. The cells were stained with HE, immunohistochemically for LAMP-2 or toluidine blue, and thereafter the presence or absence of cytoplasmic vacuolation was determined by using an optical microscope.

With `CN(C)C1CCN(C(=O)CCc2nccn2C)CC1` [Comparative Example 1, 1-(4-(dimethylamino)piperidin-1-yl)-3-(1-methyl-1H-imidazol-2-yl)propan-1-one hydrochloride], in data set [1], the microsomal CLint at 2 μmol/L came to 4 µL/min/mg.
In the case of `CC(C)n1ccnc1CCC(=O)N1CCC(N(C)C)CC1` [Comparative Example 6, 1-(4-(dimethylamino)piperidin-1-yl)-3-(1-isopropyl-1H-imidazol-2-yl)propan-1-one hydrochloride], the “Inducibility of cytoplasmic vacuolation” value in data set [2] is “Present”.
With `CN(C)C1CCN(C(=O)C[C@H](O)c2nccn2C)CC1` [Example 11, (S)-1-(4-(dimethylamino)piperidin-1-yl)-3-hydroxy-3-(1-methyl-1H-imidazol-2-yl)propan-1-one], the “Inducibility of cytoplasmic vacuolation” value in data set [2] is reported as “Absent”. The microsomal CLint at 2 μmol/L in data set [1] came out at 3 µL/min/mg.
